According to patent publication US20260344662A1, “METHOD FOR INDUCING HIGH-TEMPERATURE STRESS TOLERANCE IN PLANTS” (AJINOMOTO CO., INC., priority 2023, published 2026):

Assays:
[1] = tested on: tomato; assay: Example 4: tomato pot test, harvested fruit weight under heat stress; assay type: in vivo, tomato: Home Momotaro, rootstock (Boranchi); details: PAA 10 μM, Val 5 mM, PAA higher than Val
Procedure: • Tomato: Home Momotaro, rootstock (Boranchi).
Sandy loam (SL) was filled into a planter at 0.18 m^2/planter, and two tomato plants were planted therein. As a fertilizer, OK-F-1 (OAT Agrio Co., Ltd.) was used. The fertilizer was diluted 2000-fold with water, and applied as appropriate at 2000 mL/plant/application. Topping was performed with one leaf left above the fourth truss, and axillary buds were removed as appropriate. Cultivation was performed in a glasshouse under natural light.
Five treatment groups were evaluated (Table 7). The water-treated non-heat stress treatment group was used as a positive control. The other four treatment groups were subjected to heat treatment. The heat treatment was performed twice. The first treatment was performed for 10 days at the pre-flowering stage of the first truss, and the second treatment was performed for 10 days at the flowering stage of the fourth truss. The heat treatment was performed by opening and closing side windows and roof windows of the glasshouse (with a target maximum temperature of 35 °C in the glasshouse).
The material was applied by spraying onto stems and leaves at 50 mL per plant on the start day of the heat treatment and three days thereafter. To each material, a spreading agent (Approach BI (Kao)) was added to a final concentration of 0.05%.
Harvesting and examination were performed 11 times until the fourth truss matured. […]

[2] = tested on: tomato; assay: Example 2: heat stress tolerance of tomato (number and weight of fruits) with Val and/or PAA; assay type: in vivo, cultivar Regina; details: Val 5 mM, PAA 10 μM
Procedure: In the present Example, Val (valine) and PAA (phenylacetic acid) were applied to tomato plants individually or in combination, and their heat stress tolerance-inducing effects were evaluated.
Same as in Example 1, except that the five treatment groups shown in Table 3 were evaluated under the cultivation conditions shown in Table 4 (the maximum high temperature was 37 °C).

[3] = tested on: tomato; assay: Example 1: heat stress tolerance of tomato (number of fruits) with Val and/or IAA; assay type: in vivo, cultivar Regina; details: heat stress max 35 °C; foliar spray; Val 5 mM or 10 mM; IAA 10 μM; Val 5 mM & IAA 10 μM
Procedure: In the present Example, Val (valine) and IAA (indole-3-acetic acid) were applied to tomato either alone or in combination, and heat stress tolerance-inducing effects were evaluated.
• Tomato: cultivar Regina
Two tomato seeds were sown in a pot (Sakata) having a soil diameter of 10.5 cm and containing 350 g of a mixed soil of potting soil (Kumiai No. 1) and vermiculite (potting soil:vermiculite=3:1 (v:v)). Two weeks later, the tomato plants were thinned to leave one plant. Thirty-five days after the sowing, soil fertilization was performed with 100 mL of a 500-fold diluted Hyponex solution. Water supplementation was performed as appropriate.
The non-heat stress treatment+water treatment group (No. 1) was used as a positive control. The heat stress treatment groups included five treatment groups (Nos. 2 to 6). The material treatment and the heat treatment were performed in two separate sets. The first set of material treatment was performed 40 days after the sowing, when flowering of the tomato plants had started. The second set of material treatment was performed 46 days after the sowing. The material treatment was performed by preparing an aqueous material solution containing 0.1% spreading agent “Approach BI”, and performing foliar spraying. To each tomato plant, 6 mL of the aqueous material solution was sprayed. […]

[4] = tested on: plants; details: in vivo; cited from earlier work
[5] = tested on: SLHsFA2; assay: Example 3: expression of heat stress tolerance-related gene SLHsFA2 (real-time PCR); assay type: in vivo, tomato (cultivar: Regina); details: 5 mM Val; 10 μM IAA; 50 μM PAA; combinations 5 mM Val + 10 μM IAA, 5 mM Val + 50 μM PAA; 24 hours after spraying; n=3; relative to Actin
Procedure: (§1) Plants of tomato (cultivar: Regina) were used in evaluation of the genes.
(§2) Two tomato seeds were sown in a slit pot having a diameter of 10.5 cm (10.5 cm (top diameter)×8.8 cm (height)) filled with potting soil, and cultivated in a biotron at a temperature of 23 °C, with a light period of 14 hours (6:00 to 20:00) and a dark period of 10 hours (20:00 to 6:00). As the potting soil, a mixture of Kumiai Nippi Engei Baido No. 1 (Nihon Hiryo Co., Ltd.) and vermiculite at 3:1 (volume ratio) was used. After one week, thinning was performed to leave one plant, and cultivation was continued.
(§3) The material was dissolved in water before use. Twenty-five days after the sowing, 0.1% spreading agent “Approach BI” (Kao Corporation) was added to the material treatment solution, and the resulting solution was sprayed over the entire plant. For each treatment group, three tomato plants were used, and 2 mL of the treatment solution per plant was sprayed. Twenty-four hours after the spraying, a 1.5 cm×1.5 cm section was collected as a sample from the second true leaf.
(§4) From each leaf sample collected from tomato, RNA was extracted using a Maxwell™ RSC Plant RNA Kit (Promega) according to the manufacturer's instructions. Subsequently, single-stranded cDNA was synthesized from the extracted RNA using a ReverTra Ace™ qPCR RT Master Mix (TOYOBO). As genes associated with heat stress tolerance in tomato, the following two genes were evaluated: Heat shock factor A2 (HsFA2) and Ascorbate peroxidases (APX). Using the above cDNA as a template, real-time PCR was performed using the primers shown in Table 6, and the expression level of each gene was calculated as a relative expression level with respect to the Actin gene.

[6] = tested on: SLAPX; assay: Example 3: expression of heat stress tolerance-related gene SLAPX (real-time PCR); assay type: in vivo, tomato (cultivar: Regina); details: 5 mM Val; 10 μM IAA; 50 μM PAA; combinations 5 mM Val + 10 μM IAA, 5 mM Val + 50 μM PAA; 24 hours after spraying; n=3; relative to Actin
Procedure: as §1, §2, §3, §4

[7] = tested on: rice; assay: Example 5: rice pot test, seed weight and seed fertility under heat stress; assay type: in vivo, cultivar Nipponbare; details: PAA 10 μM; for fertile seed weight compared to water treatment (in words) / seed fertility compared to water treatment (in words) / total seed weight compared to water treatment (in words) / Fertile seed weight, relative value to heat treatment + water treatment group / Fertility (seed fertility), relative value to heat treatment + water treatment group / Total seed weight, relative value to heat treatment + water treatment group: Val 5 mM; for Fertile seed weight, relative value to heat treatment + water treatment group / Fertility (seed fertility), relative value to heat treatment + water treatment group / Total seed weight, relative value to heat treatment + water treatment group: heat treatment (38 °C), water = 100%
Procedure: • Rice cultivar: Nipponbare
Prior to sowing, rice seeds were sterilized with 25% antiformin and 70% ethanol. Filter paper was placed in a Petri dish, and rice seeds were placed on the filter paper. The filter paper was sufficiently wetted with sterile water, and the rice seeds were germinated in a dark place at 25 °C. Six days after the sowing, the germinated rice seeds were planted in a cell tray. As the potting soil in the cell tray, a mixed soil of Kumiai Baido No. 1: vermiculite=7:3 (v/v) was used. The rice plants planted in the cell tray were cultivated in a chamber under the following conditions: 14 h/light period at 28 °C and 10 h/dark period at 22 °C.
On June 20, rice seedlings cultivated in the chamber for 18 days were transplanted to magnet pots, and cultivated until harvest in an outdoor cultivation water tank apparatus. In the magnet pots, 2.3 kg of a potting soil of Kumiai Baido No. 1: vermiculite=7:3 (v/v) was used, and two rice seedlings were transplanted to each pot. During the cultivation, water was appropriately managed. From one month after the transplantation, additional fertilizer was applied with ammonium sulfate and Hyponex three times at intervals of one week.
At the heading stage, one week after the start of heading of rice, material spraying and heat treatment were each performed twice at intervals of one week. The heat treatment was performed about 16 hours after the spraying of a material. Five pots were included in each treatment group as replicates. The material was diluted with water to prepare a treatment solution, and 0.1% spreading agent “Approach BI” (Kao Corporation) was added to the treatment solution, followed by spraying 60 mL per pot of the prepared aqueous material solution onto the whole plants. For the heat treatment, the rice plants were placed in a mini-house for 6 hours from 10:00 to 16:00, and the temperature was about 37 °C to 39 °C. After completion of the heat treatment, the plants were further cultivated, and on October 8, […] after transplanting to Wagner pots, an aboveground part of each plant was cut and harvested.
The cut aboveground parts of the plants, including seeds, were dried for 15 days, and the total seed weight, the fertile seed weight, and the seed fertility were examined. The fertile seed weight is the weight of seeds obtained by removing sterile seeds of empty husks using a threshing machine. From the total seeds, 10 mL of seeds (about 100 to 150 grains) was randomly taken out into a 50-mL Falcon tube, and fertile seeds and sterile seeds were separated from each other, followed by counting their numbers. The proportion (percentage) of the fertile seeds to the total number of seeds was defined as the seed fertility.

[8] = tested on: plant male sterility caused by high temperatures; details: in vivo; cited from earlier work

CC(C)[C@H](N)C(=O)O [Val, L-valine]
harvested fruit weight compared to water-sprayed heat stress group [1]: exceeded the water-sprayed group
number of tomato fruits compared to heat stress treatment+water treatment group [2]: no large difference
number of tomato fruits compared to heat stress treatment+water treatment group [3]: markedly increased
induction of heat stress tolerance in plants [4]: function of inducing heat stress tolerance in plants
expression of SLHsfA2 compared to Mock (water) [5]: no difference in expression
expression of SLAPX compared to Mock (water) [6]: no difference in expression
fertile seed weight compared to water treatment (in words) ([7]; heat treatment): neither the treatment with Val alone nor the treatment with PAA alone showed significant differences
seed fertility compared to water treatment (in words) ([7]; heat treatment): increased the seed fertility
total seed weight compared to water treatment (in words) ([7]; heat treatment): neither the treatment with Val alone nor the treatment with PAA alone showed significant differences
Fertile seed weight, relative value to heat treatment + water treatment group [7]: 98.7%
Fertility (seed fertility), relative value to heat treatment + water treatment group [7]: 123.9%
Total seed weight, relative value to heat treatment + water treatment group [7]: 93.9%

O=C(O)Cc1ccccc1 [PAA, phenylacetic acid]
harvested fruit weight compared to water-sprayed heat stress group [1]: exceeded the water-sprayed group
number of tomato fruits compared to heat stress treatment+water treatment group [2]: no large difference
expression of SLHsfA2 compared to Mock (water) [5]: no difference in expression
expression of SLAPX compared to Mock (water) [6]: no difference in expression
increase in seed fertility ([7]; Val 5 mM & PAA 10 μM, heat treatment): ≥ 20%
fertile seed weight compared to water treatment (in words) ([7]; heat treatment): neither the treatment with Val alone nor the treatment with PAA alone showed significant differences
seed fertility compared to water treatment (in words) ([7]; heat treatment): increased the seed fertility
total seed weight compared to water treatment (in words) ([7]; heat treatment): neither the treatment with Val alone nor the treatment with PAA alone showed significant differences
Fertile seed weight, relative value to heat treatment + water treatment group [7]: 105.6%
Fertility (seed fertility), relative value to heat treatment + water treatment group [7]: 110.8%
Total seed weight, relative value to heat treatment + water treatment group [7]: 101.8%

O=C(O)Cc1c[nH]c2ccccc12 [IAA, indole-3-acetic acid]
reversal of plant male sterility caused by high temperatures [8]: function of reversing plant male sterility caused by high temperatures
number of tomato fruits compared to heat stress treatment+water treatment group [3]: markedly increased
expression of SLHsfA2 compared to Mock (water) [5]: no difference in expression
expression of SLAPX compared to Mock (water) [6]: no difference in expression
